Reference: US20250326769A1, “HETEROAROMATIC MACROCYCLIC ETHER CHEMOTHERAPEUTIC AGENTS” (Nuvalent, Inc., priority 2022, published 2025)

How the values were obtained:
[1] = target: Ba/F3 EML4-ALK v1 I1171N/D1203N (Homo sapiens (Human), UniProt Q9HC35+Q9UM73, D1203N/I1171N); test: Ba/F3 cell proliferation assay, EML4-ALK v1 I1171N/D1203N; type: cell-based; conditions: for IC50: Ba/F3 stable cells, 72 hours, CellTiter-Glo; for Selectivity for Ba/F3 EML4-ALK v1 I1171N-D1203N IC50 over Ba/F3 ETV6-TRKB IC50 / ETV6-TRKB / EML4-ALK v1 I1171N/D1203N: ratio of Ba/F3 IC50 values, TRKB selectivity; for Selectivity for Ba/F3 EML4-ALK v1 I1171N-D1203N IC50 over Ba/F3 ETV6-TRKB IC50: Table 6 bins
Sequence of Ba/F3 EML4-ALK v1 I1171N/D1203N (Q9UM73 other isoform, or with tags, fused parts or gaps I1171N/D1203N): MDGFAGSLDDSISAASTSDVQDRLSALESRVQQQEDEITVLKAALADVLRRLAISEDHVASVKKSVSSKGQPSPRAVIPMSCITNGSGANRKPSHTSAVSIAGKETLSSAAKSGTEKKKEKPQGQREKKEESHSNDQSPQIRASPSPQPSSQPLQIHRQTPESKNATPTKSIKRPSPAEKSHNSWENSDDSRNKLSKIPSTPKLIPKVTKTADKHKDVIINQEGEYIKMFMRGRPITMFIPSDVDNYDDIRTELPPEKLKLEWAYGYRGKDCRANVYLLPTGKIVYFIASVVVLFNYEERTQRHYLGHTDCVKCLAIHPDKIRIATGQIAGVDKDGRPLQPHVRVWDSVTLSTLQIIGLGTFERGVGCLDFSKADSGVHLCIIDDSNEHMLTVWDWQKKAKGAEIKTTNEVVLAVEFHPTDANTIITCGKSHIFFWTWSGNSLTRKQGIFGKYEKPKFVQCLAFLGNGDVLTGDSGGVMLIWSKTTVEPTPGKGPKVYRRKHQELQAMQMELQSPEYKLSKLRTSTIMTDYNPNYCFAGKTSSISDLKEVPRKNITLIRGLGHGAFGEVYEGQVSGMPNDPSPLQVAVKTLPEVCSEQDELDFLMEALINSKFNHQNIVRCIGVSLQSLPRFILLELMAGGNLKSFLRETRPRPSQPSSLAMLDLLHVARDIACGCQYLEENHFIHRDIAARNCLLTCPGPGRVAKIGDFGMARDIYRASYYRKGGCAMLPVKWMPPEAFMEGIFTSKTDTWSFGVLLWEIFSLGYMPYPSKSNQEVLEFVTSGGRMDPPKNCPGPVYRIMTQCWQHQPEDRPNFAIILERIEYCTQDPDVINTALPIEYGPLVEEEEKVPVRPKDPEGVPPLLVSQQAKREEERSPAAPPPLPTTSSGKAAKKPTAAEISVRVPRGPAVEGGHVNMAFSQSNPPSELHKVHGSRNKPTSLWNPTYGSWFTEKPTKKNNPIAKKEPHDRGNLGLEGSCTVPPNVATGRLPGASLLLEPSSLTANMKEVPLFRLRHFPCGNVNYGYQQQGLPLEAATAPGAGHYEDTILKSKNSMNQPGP
Procedure, shortened: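 Ba/F3 cells made IL-3-independent by retroviral EML4-ALK v1 I1171N/D1203N and selected with puromycin, then treated with 3-fold compound dilutions for 72 h. Viability by CellTiter-Glo luminescence; IC50 from four-parameter logistic fit.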

TRKB-wt = TRKB-wt (Homo sapiens (Human), UniProt Q16620); test: Biochemical kinase assay, TRKB-wt; conditions: apparent inhibitory constant, kinase domain, Morrison equation; read-out: TRKB-wt Ki^app
Sequence of TRKB-wt (Q16620 538-807): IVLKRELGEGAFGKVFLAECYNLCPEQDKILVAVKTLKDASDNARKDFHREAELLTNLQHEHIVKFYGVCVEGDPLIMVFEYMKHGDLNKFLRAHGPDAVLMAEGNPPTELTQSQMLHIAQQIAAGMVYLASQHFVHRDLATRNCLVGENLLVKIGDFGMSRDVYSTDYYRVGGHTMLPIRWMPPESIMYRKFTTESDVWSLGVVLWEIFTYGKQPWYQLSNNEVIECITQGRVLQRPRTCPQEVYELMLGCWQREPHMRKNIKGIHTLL
Procedure: (§1) First, 250 nL of compound dissolved in DMSO (100-fold of the desired concentration) was dispensed into a 384-well plate. A 12.5 μL substrate solution containing ATP (2 mM) and fluorogenic phosphorylation substrate AQT0101 ([…] for ALK and ROS, AssayQuant) or AQT0104 (26 μM for TRKB, AssayQuant) in buffer (50 mM HEPES pH 7.5, […], 0.5 mM EGTA, 10 mM MgCl2) was added and mixed thoroughly. Then, a 12.5 μL kinase solution containing ALK (1.5 nM, Carna, 08-518), ALK I1171N/D1203N (4 nM, SignalChem, custom-made), ROS1 (0.6 nM, Carma, 08-163), ROS1-G2032R (0.5 nM, SignalChem, R14-121BG), or TRKB-wt (1.5 nM, SignalChem, N17-11G) kinase domains in buffer ([…] pH 7.5, 0.01% Brij-[…], 0.4 mg/mL BSA, 0.5 mM EGTA, and 10 mM MgCl2) was added and mixed thoroughly. The plate was sealed and read by SpectraMax Paradigm at λ=485 nm every 2 minutes for 120 minutes at 30° C. Initial rates of reaction (v) were calculated from the change in fluorescence intensity over time during the initial, linear portion of the reaction. Finally, apparent inhibitory constants (Ki^app) were determined from regression of v and I (inhibitor concentration) to Morrison Equation (E=enzyme concentration): […]
(§2) Compound potency can be interpreted by binning Ki^app values against the targets: bin A for high potency, Ki^app<50 nM; bin B for medium potency, 50 nM≤Ki^app<500 nM; and bin C for low potency, Ki^app≥500 nM. […] “nd” means not determined.

Ba/F3 ETV6-TRKB = Ba/F3 ETV6-TRKB (Homo sapiens, UniProt Q16620); test: Ba/F3 cell proliferation assay, ETV6-TRKB; type: cell-based; conditions: Ba/F3 stable cells, 72 hours, CellTiter-Glo; read-out: ETV6-TRKB IC50
Sequence of Ba/F3 ETV6-TRKB (Q16620 32-822 limits assumed, change not shown): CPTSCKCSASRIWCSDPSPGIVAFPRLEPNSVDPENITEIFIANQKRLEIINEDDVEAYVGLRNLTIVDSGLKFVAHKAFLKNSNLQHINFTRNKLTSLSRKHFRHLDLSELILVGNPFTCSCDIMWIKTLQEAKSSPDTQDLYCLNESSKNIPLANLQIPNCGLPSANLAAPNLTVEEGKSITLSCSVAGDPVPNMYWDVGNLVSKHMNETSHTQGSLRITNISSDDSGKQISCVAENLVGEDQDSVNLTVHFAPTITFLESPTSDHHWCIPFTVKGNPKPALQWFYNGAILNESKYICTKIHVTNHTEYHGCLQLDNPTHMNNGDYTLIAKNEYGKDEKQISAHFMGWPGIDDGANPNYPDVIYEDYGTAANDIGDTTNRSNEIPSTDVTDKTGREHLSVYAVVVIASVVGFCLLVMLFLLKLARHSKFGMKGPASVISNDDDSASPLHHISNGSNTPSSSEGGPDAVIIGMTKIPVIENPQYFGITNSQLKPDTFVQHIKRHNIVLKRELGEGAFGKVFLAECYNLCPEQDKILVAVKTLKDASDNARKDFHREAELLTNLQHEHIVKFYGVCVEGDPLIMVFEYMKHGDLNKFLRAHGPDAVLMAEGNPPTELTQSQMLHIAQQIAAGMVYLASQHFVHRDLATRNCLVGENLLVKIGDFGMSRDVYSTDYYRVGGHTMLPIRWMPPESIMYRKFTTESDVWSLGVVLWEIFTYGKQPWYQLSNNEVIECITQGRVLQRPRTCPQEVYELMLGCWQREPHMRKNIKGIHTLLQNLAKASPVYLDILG
Procedure, shortened: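 Ba/F3 cells retrovirally transduced with ETV6-TRKB and selected for IL-3-independent growth with puromycin were treated with 3-fold compound dilutions for 72 h. Viability read by CellTiter-Glo luminescence; IC50 from percent inhibition by four-parameter logistic fit.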

ALK I1171N/D1203N = ALK I1171N/D1203N (Homo sapiens (Human), UniProt Q9UM73, D1203N/I1171N); test: Biochemical kinase assay, ALK I1171N/D1203N; conditions: apparent inhibitory constant, kinase domain, Morrison equation; read-out: ALK-I1171N-D1203N Ki^app
Sequence of ALK I1171N/D1203N (Q9UM73 1116-1392 I1171N/D1203N): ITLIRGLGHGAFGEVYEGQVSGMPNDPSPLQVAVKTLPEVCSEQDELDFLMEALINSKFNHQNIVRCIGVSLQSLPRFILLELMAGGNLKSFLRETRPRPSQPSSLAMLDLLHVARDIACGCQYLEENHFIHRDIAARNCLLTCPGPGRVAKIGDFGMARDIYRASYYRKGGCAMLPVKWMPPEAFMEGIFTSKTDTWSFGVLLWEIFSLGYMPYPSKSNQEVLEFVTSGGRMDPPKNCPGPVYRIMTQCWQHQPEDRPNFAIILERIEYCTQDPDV
Procedure: as §1, §2

Ba/F3 EML4-ALK v1 I1171N = Ba/F3 EML4-ALK v1 I1171N (Homo sapiens (Human), UniProt Q9HC35+Q9UM73, I1171N); test: Ba/F3 cell proliferation assay, EML4-ALK v1 I1171N; type: cell-based; conditions: for IC50: Ba/F3 stable cells, 72 hours, CellTiter-Glo; for ETV6-TRKB / EML4-ALK v1 I1171N: TRKB selectivity, ratio of Ba/F3 IC50 values
Sequence of Ba/F3 EML4-ALK v1 I1171N (Q9UM73 other isoform, or with tags, fused parts or gaps I1171N): as the sequence (Q9UM73 other isoform, or with tags, fused parts or gaps I1171N/D1203N) above, with N642D counted along it
Text: Genes encoding EML4-ALK v1 (variant 1), EML4-ALK v1 G1202R, EML4-ALK v1 I1171IN, EML4-ALK v1 D1203N, EML4-ALK v1 I1171N/D1203N, and ETV6-TRKB were synthesized at GeneRay, cloned into the retroviral construct pMSCV-puro (Biovector), and packaged into retroviral particles. The virus was used to infect Ba/F3 cells (RIKEN) at multiplicity of infection=1 for 1 day. Infected cells were rescued in media (RPMI-1640 with 10% fetal bovine serum and 1% streptomycin and penicillin) supplemented with mouse IL-3 (10 ng/mL) for 2 days, and stable cell lines were selected by IL-3 withdrawal and puromycin (0.8 μg/mL) for 7 days. Monoclones were selected by single-cell dilution in IL-3-free medium containing puromycin (0.8 μg/mL). Transformation of desired genes was confirmed by Sanger sequencing and western blot using the following antibodies: ALK (CST #3633) and pan-TRK (Abcam #76291).
Stable cells were plated in a 384-well plate. Test compounds were then added in a 3-fold dilution series and incubated for 72 hours. CellTiter-Glo reagent (Promega) was added. Luminescence was measured on a plate reader. Half-maximal inhibitory concentration (ICso) was calculated from percent inhibition and inhibitor concentration using four-parameter logistic regression. Compound potency can be interpreted by binning IC50 values: bin A for high potency, 0.1 nM IC50<50 nM; bin B for medium potency, 50 nM<IC50<500 nM; and bin C for low potency, IC50>500 nM. […] Exemplary data is given in Table 4 (nd is not determined).
Ba/F3 proliferation is driven by the transduced oncogenes in the same way that cancer cell proliferation in humans is driven by the expression of equivalent oncogenes.
TRKB selectivity was calculated by dividing a compound's TRKB potency by its primary target potency (e.g., ETV6-TRKB IC50/EML4-ALK v1 IC50). Compound selectivity can be interpreted by binning ratio values: bin A for very high selectivity, ratio≥30-fold; bin B for high selectivity, ratio≥10-fold but<30; bin C for moderate selectivity, ratio≥1 but<10; and bin D for low selectivity, ratio<1. […] (nd=not determined).

| Compound | IC50 [1] [nM] | Ki (TRKB-wt) [nM] | IC50 (Ba/F3 ETV6-TRKB) [nM] | Selectivity for Ba/F3 EML4-ALK v1 I1171N-D1203N IC50 over Ba/F3 ETV6-TRKB IC50 [1] | Ki (ALK I1171N/D1203N) [nM] | IC50 (Ba/F3 EML4-ALK v1 I1171N) [nM] | ETV6-TRKB / EML4-ALK v1 I1171N (Ba/F3 EML4-ALK v1 I1171N) | ETV6-TRKB / EML4-ALK v1 I1171N/D1203N [1] |
| --- | --- | --- | --- | --- | --- | --- | --- | --- |
| C[C@H]1Oc2cc(cnc2N)-c2c(c(C(N)=O)nn2CC2CC2)Cc2cccnc2-c2ccc(F)cc21 [Example 6, (R)-23-amino-3-(cyclopropylmethyl)-17-fluoro-20-methyl-21-oxa-3,4,12,24-tetraazapentacyclo[20.3.1.0^2,^6.0^8,^13.0^14,^19]hexacosa-1(25),2(6),4,8(13),9,11,14,16, 18,22(26),23-undecaene-5-carboxamide] | 0.1 to 50 | 50 to 500 | > 500 |  |  |  |  |  |
| CCn1nc(C(=O)N(C)C)c2c1-c1cnc(N)c(c1)O[C@H](C)c1cc(F)ccc1-c1ncccc1C2=O [Example 47, N,N-dimethyl-(R)-23-amino-3-ethyl-17-fluoro-20-methyl-7-oxo-21-oxa-3,4,12,24-tetraazapentacyclo[20.3.1.0^2,^6.0^8,^13.0^14,^19]hexacosa-1(25),2(6),4,8(13),9,11,14,16,18,22(26),23-undecaene-5-carboxamide] | 50 to 500 |  | > 500 | BB (bin BB for the selectivity with the ratio≥10-fold but<30) | 50 to 500 |  |  |  |
| CCn1ncc2c1-c1cnc(N)c(c1)O[C@H](C)c1cc(F)ccc1-c1ncccc1C2=O [Example 76, (R)-23-amino-3-ethyl-17-fluoro-20-methyl-21-oxa-3,4,12,24-tetraazapentacyclo[20.3.1.0^2,^6.0^8,^13.0^14,^19]hexacosa-1(25),2(6),4,8(13),9,11,14,16,18,22(26),23-undecaen-7-one] | 50 to 500 |  | > 500 | DD (bin DD for the selectivity with the ratio≥1 but<5) | < 50 | > 500 | C (bin C for moderate selectivity, ratio≥1 but<10) | C (bin C for moderate selectivity, ratio≥1 but<10) |
| Cc1cc2n(n1)-c1c(F)cc(F)cc1[C@@H](C)Oc1cc(cnc1N)-c1c(c(C(=O)N(C)C)nn1CC1CC1)C2 [Example 44, N,N-dimethyl-(R)-22-amino-3-(cyclopropylmethyl)-14,16-difluoro-10,19-dimethyl-20-oxa-3,4,11,12,23-pentaazapentacyclo[19.3.1.0^2,^6.0^8,^12.0^13,^18]pentacosa-1(24),2(6),4,8, 10,13,15,17,21(25),22-decaene-5-carboxamide] | 0.1 to 50 | 50 to 500 | > 500 |  |  |  |  |  |
| C[C@H]1Oc2cc(cnc2N)-c2c(cnn2CC2CC2)C(=O)c2cccnc2-c2ccc(F)cc21 [Example 29, (R)-23-amino-3-(cyclopropylmethyl)-17-fluoro-20-methyl-21-oxa-3,4, 12,24-tetraazapentacyclo[20.3.1.0^2,^6.0^8,^13.0^14,^19]hexacosa-1(25),2(6),4,8(13),9,11,14,16,18,22(26),23-undecaen-7-one] | > 500 |  | > 500 | BB (bin BB for the selectivity with the ratio≥10-fold but<30) |  | > 500 | B (bin B for high selectivity, ratio≥10-fold but<30) | B (bin B for high selectivity, ratio≥10-fold but<30) |
| C[C@H]1Oc2cc(cnc2N)-c2c(c(C(=O)N(C)C)nn2C2CCC2)Cc2cccnc2-c2ccc(F)cc21 [Example 48, N,N-dimethyl-(R)-23-amino-3-cyclobutyl-17-fluoro-20-methyl-21-oxa-3,4,12,24-tetraazapentacyclo[20.3.1.0^2,^6.0^8,^13.0^14,^19]hexacosa-1(25),2(6),4,8(13),9,11,14,16,18,22(26),23-undecaene-5-carboxamide] | 0.1 to 50 |  | 50 to 500 |  |  | 0.1 to 50 |  |  |
| CCn1nc(C(=O)N(C)C)c2c1-c1cnc(N)c(c1)O[C@H](C)c1cc(F)cc(F)c1-c1ncccc1C2 [Example 46, N,N-dimethyl-(R)-23-amino-3-ethyl-15,17-difluoro-20-methyl-21-oxa-3,4,12,24-tetraazapentacyclo[20.3.1.0^2,^6.0^8,^13.0^14,^19]hexacosa-1(25),2(6),4,8(13),9,11,14,16,18,22(26),23-undecaene-5-carboxamide] | 0.1 to 50 |  | 50 to 500 |  |  | 50 to 500 | C (bin C for moderate selectivity, ratio≥1 but<10) | B (bin B for high selectivity, ratio≥10-fold but<30) |
| C[C@H]1Oc2cc(cnc2N)-c2c(c(C#N)nn2CC2CC2)Cc2cn(C)nc2-c2ccc(F)cc21 [Example 1, (19R)-22-amino-3-(cyclopropylmethyl)-16-fluoro-10,19-dimethyl-20-oxa-3,4,10,11,23-pentaazapentacyclo[19.3.1.0^2,6.0^8,12.0^13,18]pentacosa-1(24),2(6),4,8,11,13,15,17,21(25),22-decaene-5-carbonitrile] | > 500 |  | > 500 |  |  | 50 to 500 | B (bin B for high selectivity, ratio≥10-fold but<30) | C (bin C for moderate selectivity, ratio≥1 but<10) |
| C[C@H]1Oc2cc(cnc2N)-c2c(nn(C)c2C#N)C(=O)c2scnc2-c2c(F)cc(F)cc21 [Example 81, (R)-22-amino-14,16-difluoro-4-methyl-19-methyl-7-oxo-20-oxa-9-thia-4,5,11,23-tetraazapentacyclo[19.3.1.0^2,^6.0^8,^12.0^13,^18]pentacosa-1(24),2,5,8(12),10,13,15,17,21(25),22-decaene-3-carbonitrile] | 0.1 to 50 |  | > 500 |  |  | 0.1 to 50 | A (bin A for very high selectivity, ratio≥30-fold) | A (bin A for very high selectivity, ratio≥30-fold) |
| CCN(C)C(=O)c1nn(CC2CC2)c2c1Cc1cn(C)nc1-c1ccc(F)cc1[C@@H](C)Oc1cc-2cnc1N [Example 38, N-ethyl-N-methyl-(R)-22-amino-3-(cyclopropylmethyl)-16-fluoro-10-methyl-19-methyl-20-oxa-3,4,10,11,23-pentaazapentacyclo[19.3.1.0^2,^6.0^8,^12.0^13,^18]pentacosa-1(24),2(6),4,8,11,13,15,17,21(25),22-decaene-5-carboxamide] | 0.1 to 50 | 50 to 500 | > 500 |  |  | 0.1 to 50 |  |  |
